Test results taken from patent US12715893B2, “Oxysterol compounds and uses thereof” (MAX BIOPHARMA, INC., priority 2020, dated 2026).

Tests used:
Hh signaling = settings: background statement; Compound 8 in mesenchymal cells; cited from earlier work
TGFβ signaling = settings: background statement; cited from earlier work
[1] = tested on: Hedgehog target gene Gli1; assay: Expression of Hedgehog target gene Gli1 (quantitative RT-PCR) in NIH3T3 cells; type: cell-based; settings: for effect on Hh signaling (relative expression of Gli1) / effect on Gli/Hh signaling in cells treated with Conditioned Medium (relative expression of Gli1): 5 μM and 10 μM; for effect on Hh signaling (relative expression of Gli1): vs DMSO control (FIG. 5); for effect on Gli/Hh signaling in cells treated with Conditioned Medium (relative expression of Gli1): CAPAN-1 conditioned medium (CM), vs CM (FIG. 5, FIG. 7)
Procedure: (§1) The compounds described herein were tested on cell cultures to assess their effects on the mRNA expression of Hedgehog target genes Gli1. Conditioned medium (CM) was collected from CAPAN-1 human pancreatic tumor cells grown to confluence in DMEM containing 10% fetal bovine serum (FBS) and contains Hh proteins that activate the Hh pathway in cells receiving the CM. After 7 days of incubation of confluent cells with the described medium, CM was collected, spun for 5 minutes at 1800 rpm to remove dead cells and debris, and then frozen at −80° C. For treating cells, CM was thawed and diluted 1:2 to 1:6 with DMEM containing 5% FBS. NIH3T3 cells and M2 cells were cultured in 12-well plates with DMEM containing 10% FBS. The cells were then treated with DMEM containing 5% FBS or CM in the presence or absence of the compounds prepared in DMSO when they reach confluence. Quantitative RT-PCR was then performed according to the following approach. After 72 to 96 hours of the treatments, the cells were lysed and subjected to RNA extraction with RNease Plus Min kit (Qiagen). A portion of RNA from each well was subjected to Reverse Transcription (RT) using iScript Reverse Transcription Supermix (BioRad). QPCR was performed to test the expression of Hh target gene Gli1 using IQ SYBR Green Supermix (BioRad).

[2] = tested on: Hedgehog target gene Gli1; assay: Expression of Hedgehog target gene Gli1 (quantitative RT-PCR) in M2 cells; type: cell-based; settings: 5% FBS in DMEM, 1 μM and 5 μM, vs DMSO control (FIG. 6)
Procedure: as §1

[3] = tested on: Hedgehog target gene Gli1; assay: Expression of Hedgehog target gene Gli1 (Q-RT-PCR, normalized to Oaz1) in C3H10T1/2 cells; type: cell-based; settings: 5 μM and 10 μM, 72 hours (FIG. 9)
Procedure: as §1, with “A portion of RNA from each well was subjected to Reverse Transcription (RT) using iScript Reverse Transcription Supermix (BioRad). QPCR was performed to test the expression of Hh target gene Gli1 using IQ SYBR Green Supermix (BioRad).” left out
In a similar manner, C3H10T1/2 cells were pretreated for 2 hours with Compound 17 in DMEM containing 5% FBS. […] After 72 hours, RNA was extracted and analyzed by Q-RT-PCR for the expression of Hh target gene Gli1 and normalized to Oaz1 expression.

Row | SMILES | effect on Hh signaling (Hh signaling) | effect on Gli signaling (relative expression of Gli1) [2] | also measured
1 | C[C@]12CC[C@H](O)C[C@@H]1CC[C@@H]1[C@@H]2CC[C@@]2(C)[C@H]1CC[C@@H]2[C@](C)(O)CCc1ccc(F)cc1 [Compound 11, (3S,5S,8R,9S,10S,13S,14S,17S)-17-((R)-4-(4-fluorophenyl)-2-hydroxybutan-2-yl)-10,13-dimethylhexadecahydro-1H-cyclopenta[a]phenanthren-3-ol] | Hh inhibitors |  | 
2 | C[C@]12CC[C@H]3[C@@H](CC=C4C[C@@H](O)CC[C@@]43C)[C@@H]1CC[C@@H]2[C@](C)(O)CCc1cccnc1 [Compound 12, (3S,8S,9S,10R,13S,14S,17S)-17-((R)-2-hydroxy-4-(pyridin-3-yl)butan-2-yl)-10,13-dimethyl-2,3,4,7,8,9,10,11,12,13,14,15,16,17-tetradecahydro-1H-cyclopenta[a]phenanthren-3-ol] | Hh inhibitors |  | effect on TGFβ signaling (TGFβ signaling): blocks TGFβ signaling
3 | C[C@]12CC[C@H]3[C@@H](CC=C4C[C@@H](O)CC[C@@]43C)[C@@H]1CC[C@@H]2[C@H](O)CCc1ccc(F)cc1 [Compound 1, (3S,8S,9S,10R,13S,14S,17S)-17-((R)-3-(4-fluorophenyl)-1-hydroxypropyl)-10,13-dimethyl-2,3,4,7,8,9,10,11,12,13,14,15,16,17-tetradecahydro-1H-cyclopenta[a]phenanthren-3-ol] |  | stimulate Gli signaling | effect on Hh signaling (relative expression of Gli1) ([1]; 5% FBS in DMEM): increase Hh signaling
4 | C[C@]12CC[C@H](O)C[C@@H]1CC[C@@H]1[C@@H]2CC[C@]2(C)[C@@H](C(CCc3ccc(F)cc3)=NO)CC[C@@H]12 [Compound 17, 3-(4-fluorophenyl)-1-((3S,5S,8R,9S,10S,13S,14S,17S)-3-hydroxy-10,13-dimethylhexadecahydro-1H-cyclopenta[a]phenanthren-17-yl)propan-1-one oxime] |  |  | effect on Hh signaling (relative expression of Gli1) ([3]; 5% FBS in DMEM): activator of Hh signaling; effect on conditioned medium induced Gli1 expression ([3]; CAPAN-1 CM, 2 hours pretreatment): further enhances the conditioned medium induced Gli1 expression
5 | CC[C@@](O)(CCc1cccnc1)[C@H]1CC[C@H]2[C@@H]3CC[C@H]4C[C@@H](O)CC[C@]4(C)[C@H]3CC[C@]12C [Compound 6, (3S,5S,8R,9S,10S,13S,14S,17S)-17-((R)-3-hydroxy-1-(pyridin-3-yl)pentan-3-yl)-10,13-dimethylhexadecahydro-1H-cyclopenta[a]phenanthren-3-ol] |  |  | effect on baseline expression of Gli ([1]; 5% FBS in DMEM, 10 μM, vs DMSO control (FIG. 8)): lowers the baseline expression of Gli; effect on Gli/Hh signaling in cells treated with Conditioned Medium (relative expression of Gli1) [1]: inhibits Gli signaling
6 | CCCCCC[C@](C)(O)[C@H]1CC[C@H]2[C@@H]3C[C@H](O)[C@H]4C[C@@H](O)CC[C@]4(C)[C@H]3CC[C@@]21C [Compound 10, (3S,5S,6S,8R,9S,10R,13S,14S,17S)-17-((S)-2-hydroxyoctan-2-yl)-10,13-dimethylhexadecahydro-1H-cyclopenta[a]phenanthrene-3,6-diol, reference compound] | Hh activator | stimulate Gli signaling | 
7 | CC(C)CCC[C@](C)(O)[C@H]1CC[C@H]2[C@@H]3CC=C4C[C@@H](O)CC[C@]4(C)[C@H]3CC[C@@]21C [Compound 8, 20(S)-hydroxycholesterol] | induces allosteric activation of Hh signaling |  | 
8 | C[C@]12CC[C@H](O)C[C@@H]1CC[C@@H]1[C@@H]2CC[C@]2(C)[C@@H]([C@H](O)CCc3ccc(F)cc3)CC[C@@H]12 [Compound 2, (3S,5S,8R,9S,10S,13S,14S,17S)-17-((R)-3-(4-fluorophenyl)-1-hydroxypropyl)-10,13-dimethylhexadecahydro-1H-cyclopenta[a]phenanthren-3-ol] |  |  | effect on Hh signaling (relative expression of Gli1) ([1]; 5% FBS in DMEM): increase Hh signaling, although Compound 2 to a lesser degree than Compound 1; effect on Gli/Hh signaling in cells treated with Conditioned Medium (relative expression of Gli1) [1]: weak Hh antagonist
9 | C[C@]12CC[C@H](O)C[C@@H]1[C@@H](O)C[C@@H]1[C@@H]2CC[C@]2(C)[C@@H]([C@H](O)CCc3ccc(F)cc3)CC[C@@H]12 [Compound 5, (3S,5S,6S,8S,9S,10R,13S,14S,17S)-17-((R)-3-(4-fluorophenyl)-1-hydroxypropyl)-10,13-dimethylhexadecahydro-1H-cyclopenta[a]phenanthrene-3,6-diol] |  | stimulate Gli signaling | 
10 | CC(C)CC[C@@H](O)[C@](C)(O)[C@H]1CC[C@H]2[C@@H]3CC=C4C[C@@H](O)CC[C@]4(C)[C@H]3CC[C@]12C [Compound 9, 20α,22(R)-dihydroxycholesterol] | blocks Hh signaling |  | 
